We go through two molecules from US20160206674A1, “FRUIT EXTRACTS AND EXTRACT FORMULATIONS OF CANARIUM ODONTOPHYLLUM AS ACTIVES AND RELATED INVENTION EMBODIMENTS” (BIOTROPICS MALAYSIA BHD, priority 2013, published 2016).

The target in test [1] is T1, human recombinant PDE2A1 (Homo sapiens, UniProt O00408).
T1 construct: FLAG (N); purchased BPS Bioscience 0021
The test is described as follows: AlphaScreen cGMP PDE assay, PDE2. In kind it is biochemical. The conditions noted are these: n = 3. On the procedure:
(§1) Phosphodiesterase inhibitory activity of the test items prepared according to the procedure in example 2 and outlined in table 2 were measured using the AlphaScreen® assay technology. Materials and methods were according to technical instructions given by Perkin Elmer (www.perkinelmer.com; “Application note “AlphaScreen cGMP Phosphodiesterase Assay Using AlphaScreen cGMP Supplement with Anti-cGMP Antibody”; Authors: Martin Boissonneault, Christian Fafard, Joe Trometer, Chantal Illy, Stéphane Parent, and Roger Bossé; PerkinElmer Life and Analytical Sciences, 710 Bridgeport Avenue, Shelton, Conn. 06484 USA).
(§2) The AlphaScreen cGMP PDE assay used PerkinElmer's AlphaScreen cGMP supplement with antibody (cat. no. 6760308M or 6760308R) which consists of a biotinylated cGMP derivative and an anti-cGMP antibody. The assay also requires the AlphaScreen Protein A detection kit (PerkinElmer cat. no. 6760617), composed of Protein A acceptor beads and Streptavidin donor beads. The human recombinant PDE5A (N-terminal GST, cat no 60050) and PDE2A1 (N-terminal FLAG tag, cat no 0021) were purchased from BPS Bioscience, San Diego, United States. […]
(§3) 1—Add 5 μL of inhibitor* * Please note that for compound screening purposes, adding […] of test compounds to 4.5 μL of cGMP substrate solution prepared in the PDE reaction Buffer is recommended. […] 2—Add 5 μL of PDE (5U per well) 3—Incubate 120 minutes at 23° C. for enzymatic cleavage of unlabeled cGMP 4—Add 5 μL of the AlphaScreen cGMP Supplement (1 nM final) 5—Add 10 μL Detection mix (anti-cGMP antibody/Streptavidin-Donor beads (20 μg/mL final)/Protein A-Acceptor beads (20 μg/mL final)) 6—Incubate the plate for 1 hour at room temperature in the dark and detect the AlphaScreen signal using the microplate analyzer PHERAstar reader.

Test [2] concerns the target T2, human recombinant PDE5A (Homo sapiens, UniProt O76074).
T2 construct: GST (N); purchased BPS Bioscience 60050
The test can be described thus: AlphaScreen cGMP PDE assay, PDE5. The class given is biochemical. To be noted: n = 3. On the procedure:
as §1, §2, §3
Background: In Alpha technology, singlet oxygen from a donor bead excites a nearby acceptor bead.

T1 sequence (O00408 1-920 isoform O00408-2): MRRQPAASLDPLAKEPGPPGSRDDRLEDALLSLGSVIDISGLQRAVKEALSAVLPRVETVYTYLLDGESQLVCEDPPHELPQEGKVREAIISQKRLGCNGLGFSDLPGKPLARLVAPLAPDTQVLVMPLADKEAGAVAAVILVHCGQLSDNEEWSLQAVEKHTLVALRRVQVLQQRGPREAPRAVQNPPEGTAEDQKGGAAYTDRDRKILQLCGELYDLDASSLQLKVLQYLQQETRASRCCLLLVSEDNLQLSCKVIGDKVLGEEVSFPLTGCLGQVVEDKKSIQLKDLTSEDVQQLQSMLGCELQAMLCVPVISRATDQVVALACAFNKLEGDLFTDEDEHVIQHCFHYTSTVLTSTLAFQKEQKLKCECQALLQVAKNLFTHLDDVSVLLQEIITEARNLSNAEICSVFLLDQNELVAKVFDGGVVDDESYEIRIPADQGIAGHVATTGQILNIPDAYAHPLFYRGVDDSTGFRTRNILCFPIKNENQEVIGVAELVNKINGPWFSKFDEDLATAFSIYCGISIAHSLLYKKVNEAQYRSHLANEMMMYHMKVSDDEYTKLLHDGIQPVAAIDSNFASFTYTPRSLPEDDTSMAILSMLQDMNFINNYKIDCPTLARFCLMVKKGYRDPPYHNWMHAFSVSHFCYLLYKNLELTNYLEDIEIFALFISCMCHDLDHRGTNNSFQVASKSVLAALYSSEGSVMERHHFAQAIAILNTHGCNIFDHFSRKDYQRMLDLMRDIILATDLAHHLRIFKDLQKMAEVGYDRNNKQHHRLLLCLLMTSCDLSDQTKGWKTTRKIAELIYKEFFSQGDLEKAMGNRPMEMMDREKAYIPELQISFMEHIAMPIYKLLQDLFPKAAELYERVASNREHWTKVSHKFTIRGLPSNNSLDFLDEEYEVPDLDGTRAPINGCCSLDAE

For `CCCCCCC(C(C)O)n1cnc2c(N)ncnc21.Cl` (stereo not drawn) [EHNA], the “% inhibition of PDE-2” value in test [1] (Reference at 10 μM) amounted to 98%; in test [1] (reference at 1 μM), 33%; in test [1] (reference at 5 μM), 73%.
`CCCOc1ccccc1-c1nc2nn[nH]c2c(=O)[nH]1` [Zaprinast]: the inhibition at 1 µM in test [2] (reference at 1 μM) came to 57%. The inhibition at 5 µM in test [2] (reference at 5 μM) came out at 81%. Moreover, in test [2] (reference at 19 μM), the inhibition at 19 µM turned out to be 88%.

In general, inhibition refers to how much of the control response was suppressed.
